pIC50: −log10 of the molar value. In brackets after ≈: the same amount, converted by molar mass. Where two headings read alike, the source gives them in different places.
Tests used:
[1] = type: in vitro ADME, mouse
M. tuberculosis (H37Rv) = test: microbe, parasite or virus in culture; type: cell-based, Mycobacterium tuberculosis; conditions: Mycobacterium tuberculosis, H37RV
HepG2 cells = test: HepG2 cytotoxicity; conditions: Homo sapiens
Excerpt: Assays to establish HepG2 cytotoxicity, in vitro microsomal/hepatocyte metabolic stability, aqueous kinetic solubility, and in vivo pharmacokinetic profiles were all performed as previously described.[15],[35]−[37]

[2] = type: in vitro ADME, mouse; remark: listed apart in the source
physchem = type: physicochemical
[3] = read-out: Wk2_7H9/DPPC/ casitone/ Tyloxapol MIC
[4] = read-out: Wk2_ 7H9/DPPC/ cholesterol/BSA/ Tyloxapol MIC
[5] = read-out: Wk2_7H9/glucose/ BSA/Tyloxapol MIC
[6] = read-out: Wk2_7H9/glucose/ casitone/ Tyloxapol MIC
[7] = HepG2, read-out: HepG2 inhibitory concentration (IC50)
[8] = pH 7.4, aqueous buffer, kinetic from dmso stock

Row | Compound | Microsomal Cli ([1]; CD1, mouse) | Mouse micro Cl ([1]; mouse, microsomes) | MIC (M. tuberculosis (H37Rv); read-out: H37Rv MIC A) | MIC (M. tuberculosis (H37Rv); read-out: H37Rv MIC B) | MIC (M. tuberculosis (H37Rv); [3]) | MIC (M. tuberculosis (H37Rv); [4]) | MIC (M. tuberculosis (H37Rv); [5]) | MIC (M. tuberculosis (H37Rv); [6]) | pIC50 (HepG2 cells; [7]) | Hepatocyte Cli ([2]; mouse) | Mouse Heps Cl ([2]; mouse, hepatocytes) | solubility kinetic (physchem; [8]) | solubility kinetic (physchem; read-out: Kin. Sol) | also measured
1 | CN(C)c1ncnc2sc(-c3c(F)c(F)cc(F)c3F)nc12 [Compound 2, CN(C)c1ncnc2sc(nc12)-c1c(c(cc(c1F)F)F)F] | >50 mL/min/g | >50 mLmin/g | > 50 µM | > 50 µM | > 50 µM | > 50 µM | > 50 µM | 4.7 µM (≈ 1.54 µg/mL) | < 4.00 |  |  |  |  | 
2 | CN(C)c1ncnc2sc(-c3ccccc3)nc12 [Compound 3, CN(C)c1ncnc2sc(nc12)-c1ccccc1] | >50 mL/min/g | >50 mLmin/g | > 50 µM | > 50 µM | > 50 µM | > 50 µM | > 50 µM | > 50 µM | < 4.00 |  |  |  |  | 
3 | CN(C)c1ncnc2sc(-c3cc(F)c(F)c(F)c3)nc12 [Compound 4, CN(C)c1ncnc2sc(nc12)-c1cc(c(c(c1)F)F)F] | >50 mL/min/g | >50 mLmin/g | > 50 µM | > 50 µM | > 50 µM | > 50 µM | > 50 µM | > 50 µM | < 4.00 |  |  |  |  | 
4 | CN(C)c1ncnc2sc(-c3ccc(F)cc3)nc12 [Compound 5, CN(C)c1ncnc2sc(nc12)-c1ccc(cc1)F] | >50 mL/min/g | >50 mLmin/g | > 50 µM | > 50 µM | > 50 µM | > 50 µM | > 50 µM | 19 µM (≈ 5.21 µg/mL) | < 4.00 |  |  |  |  | 
5 | CN(C)c1ncnc2oc(-c3c(F)c(F)c(F)c(F)c3F)nc12 [Compound 6, CN(C)c1ncnc2oc(nc12)-c1c(c(c(c(c1F)F)F)F)F] | >50 mL/min/g | >50 mLmin/g | 0.2 µM (≈ 0.066 µg/mL) | 1.4 µM (≈ 0.462 µg/mL) | 0.2 µM (≈ 0.066 µg/mL) | 1.4 µM (≈ 0.462 µg/mL) | 1.4 µM (≈ 0.462 µg/mL) | 0.15 µM (≈ 0.0495 µg/mL) | < 4.00 | >50 mL/min/g | >50 mLmin/g | 1 µM (≈ 0.33 µg/mL) | 1.0 µM (≈ 0.33 µg/mL) | 
6 | CN(C)c1ncnc2c1nc(-c1c(F)c(F)c(F)c(F)c1F)n2C [Compound 7, CN(C)c1ncnc2n(c(nc12)-c1c(c(c(c(c1F)F)F)F)F)C] | 8.4 mL/min/g | 8.4 mLmin/g | 1.9 µM (≈ 0.652 µg/mL) | > 50 µM | 1.9 µM (≈ 0.652 µg/mL) | > 50 µM | > 50 µM | 1.7 µM (≈ 0.584 µg/mL) | < 4.00 |  |  | 26 µM (≈ 8.92 µg/mL) | 26 µM (≈ 8.92 µg/mL) | 
7 | CCN(CC)c1ncnc2sc(-c3c(F)c(F)c(F)c(F)c3F)nc12 [Compound 8, CCN(CC)c1ncnc2sc(nc12)-c1c(c(c(c(c1F)F)F)F)F] | 26 mL/min/g | 26 mLmin/g | 0.3 µM (≈ 0.112 µg/mL) | 0.78 µM (≈ 0.292 µg/mL) | 0.3 µM (≈ 0.112 µg/mL) | 0.8 µM (≈ 0.299 µg/mL) | 0.8 µM (≈ 0.299 µg/mL) | 0.4 µM (≈ 0.15 µg/mL) | < 4.00 |  |  | 0.142 µM (≈ 0.0532 µg/mL) |  | solubility kinetic (physchem; water, kinetic from dmso stock): 0.1 µM (≈ 0.0374 µg/mL)
8 | Fc1c(F)c(F)c(-c2nc3c(N4CCOCC4)ncnc3s2)c(F)c1F [Compound 9, Fc1c(c(c(c(c1F)F)-c1nc2c(ncnc2s1)N1CCOCC1)F)F] | 43 mL/min/g | 43 mLmin/g |  | 0.6 µM (≈ 0.233 µg/mL) |  | 0.6 µM (≈ 0.233 µg/mL) | 0.6 µM (≈ 0.233 µg/mL) | 0.07 µM (≈ 0.0272 µg/mL) | < 4.00 |  |  | 2.8 µM (≈ 1.09 µg/mL) | 2.8 µM (≈ 1.09 µg/mL) | 
9 | Fc1c(F)c(F)c(-c2nc3c(N4CCOCC4)ncnc3o2)c(F)c1F [Compound 10, Fc1c(c(c(c(c1F)F)-c1nc2c(ncnc2o1)N1CCOCC1)F)F] |  |  | 0.2 µM (≈ 0.0745 µg/mL) | 1.2 µM (≈ 0.447 µg/mL) | 0.2 µM (≈ 0.0745 µg/mL) | 1.2 µM (≈ 0.447 µg/mL) | 1.2 µM (≈ 0.447 µg/mL) | 0.15 µM (≈ 0.0558 µg/mL) | 4.31 |  |  |  |  | Mouse Heps Cl ([2]; intrinsic clearance (Cli), mouse hepatocytes, Tables 1-4): >50 mLmin/g; Hepatocyte Cli ([2]; supplement data table): >50 mL/min/g; Mouse micro Cl ([1]; intrinsic clearance (Cli), CD1 mouse liver microsomes, Tables 1-4): 44 mLmin/g; Microsomal Cli ([1]; supplement data table): 44 mL/min/g; solubility kinetic (physchem; kinetic from dmso stock, kinetic solubility in water, read-out: Kin. Sol): 13.6 µM (≈ 5.06 µg/mL); solubility kinetic (physchem; pH 7.4, aqueous buffer, kinetic from dmso stock, pH7.4, read-out: Kinetic Solubility pH7.4): 14 µM (≈ 5.21 µg/mL); pIC50 (HepG2 cells; HepG2, read-out: Hs-HEPG IC50): 4.32
10 | Fc1c(F)c(F)c(-c2nc3cncnc3s2)c(F)c1F [Compound 11, Fc1c(c(c(c(c1F)F)-c1nc2cncnc2s1)F)F] | 18 mL/min/g | 18 mLmin/g | 0.34 µM (≈ 0.103 µg/mL) | 6.3 µM (≈ 1.91 µg/mL) | 0.342 µM (≈ 0.104 µg/mL) | 6.3 µM (≈ 1.91 µg/mL) | 4.7 µM (≈ 1.43 µg/mL) | 0.279 µM (≈ 0.0846 µg/mL) | 4.46 |  |  | 103 µM (≈ 31.2 µg/mL) | 103 µM (≈ 31.2 µg/mL) | 
11 | CNc1ncnc2oc(-c3c(F)c(F)c(F)c(F)c3F)nc12 [Compound 12, CNc1ncnc2oc(nc12)-c1c(c(c(c(c1F)F)F)F)F] | <0.5 mL/min/g | 0.5 mLmin/g | > 50 µM | > 50 µM | > 50 µM | > 50 µM | > 50 µM | > 50 µM | < 4.00 | 4.7 mL/min/g | 4.7 mLmin/g | 227 µM (≈ 71.8 µg/mL) | 228 µM (≈ 72.1 µg/mL) | 
12 | CN(C)c1ccnc2oc(-c3c(F)c(F)c(F)c(F)c3F)nc12 [Compound 13, CN(C)c1ccnc2oc(nc12)-c1c(c(c(c(c1F)F)F)F)F] | >50 mL/min/g | >50 mLmin/g | 0.6 µM (≈ 0.198 µg/mL) | 3.1 µM (≈ 1.02 µg/mL) | 0.6 µM (≈ 0.198 µg/mL) | 3.1 µM (≈ 1.02 µg/mL) | 2.3 µM (≈ 0.757 µg/mL) | 0.6 µM (≈ 0.198 µg/mL) |  | >50 mL/min/g | >50 mLmin/g | 1.6 µM (≈ 0.527 µg/mL) | 1.6 µM (≈ 0.527 µg/mL) | 
13 | CN(C)c1nccc2oc(-c3c(F)c(F)c(F)c(F)c3F)nc12 [Compound 14, CN(C)c1nccc2oc(nc12)-c1c(c(c(c(c1F)F)F)F)F] | >50 mL/min/g | >50 mLmin/g | 3.1 µM (≈ 1.02 µg/mL) | 9.4 µM (≈ 3.09 µg/mL) | 3.1 µM (≈ 1.02 µg/mL) | 9.4 µM (≈ 3.09 µg/mL) | 6.3 µM (≈ 2.07 µg/mL) | 3.1 µM (≈ 1.02 µg/mL) | < 4.00 | >50 mL/min/g | >50 mLmin/g |  |  | 
14 | Oc1ncnc2oc(-c3c(F)c(F)c(F)c(F)c3F)nc12 [Compound 15, Oc1ncnc2oc(nc12)-c1c(c(c(c(c1F)F)F)F)F] | 2.8 mL/min/g | 2.81 mLmin/g | 1.4 µM (≈ 0.424 µg/mL) | 9.4 µM (≈ 2.85 µg/mL) | 1.4 µM (≈ 0.424 µg/mL) | 9.4 µM (≈ 2.85 µg/mL) | 5.4 µM (≈ 1.64 µg/mL) | 3.9 µM (≈ 1.18 µg/mL) | 4.06 | >50 mL/min/g | >50 mLmin/g | 149 µM (≈ 45.2 µg/mL) | 149 µM (≈ 45.2 µg/mL) | 
15 | COC(=O)c1cccnc1NC(=O)c1c(F)c(F)c(F)c(F)c1F [Compound 17, COC(=O)c1cccnc1NC(=O)c1c(c(c(c(c1F)F)F)F)F] | 47 mL/min/g | 47 mLmin/g | 9.4 µM (≈ 3.25 µg/mL) | > 50 µM | 9.4 µM (≈ 3.25 µg/mL) | > 50 µM | > 50 µM | 12.5 µM (≈ 4.33 µg/mL) | < 4.00 |  |  |  |  | 
